Experimental data from patent US6630466B2, “Medicament compositions containing anticholinergically-effective compounds and salmeterol” (priority 1999, dated 2003).
Where “and” joins values, the source holds several entries; their conditions need not be identical. Equal entries are not always repeated. Structures can show the parent of a compound that is named as a salt.

How the values were obtained:
[1] = system: Heart Frequency of Narcotized Dogs; experiment: Heart frequency of narcotized dogs after inhalative application via RESPIMAT (ECG, cardiotachometer)
Experimental: (§1) 18 mongrel dogs with a body weight of 27 to 32 kg. Kept in individual or communal cages, pelleted standard food, last fed approximately 15 hours before the start of the tests, drinking water freely available.
(§2) After pre-medication with 2 mg/kg morphine hydrochloride i.m., 30 mg/kg pentobarbital-sodium (NEMBUTAL®) is slowly injected intravenously. The animals are relaxed with 1.0 mg/kg i.v. suxamethonium.
Registration of heart frequency is via ECG (extremity derivative II) and cardiotachometer.
After an equilibration period of 30 minutes, short-term bronchospasms are generated by i.v. injection of 10 μg/kg acetylcholine chloride—this is repeated 2-3× within a 10-minute period. […] Application of the combinations takes place with the individual combinations with an interval of approximately 1 minute. With the BINEB system, the triggering mechanism takes place at the end of the expiration phase and the atomized solution is pressed into the tracheo-bronchial tree in the following inspiration phase of the breath pump.

[2] = system: bronchial resistance of narcotized dogs; experiment: Bronchospasmolytic effect: inhibition of ACh-induced increase of pulmonary resistance in narcotized dogs after inhalative application via […]; type: in vivo, dog; settings: single substances 3 and 10 μg, combination 3 μg + 3 μg
Experimental: as §1, §2
After intubation via a servo ventilator 900C (Siemens), the animals are ventilated with ambient air and oxygen (4:1), frequency 15/min., breath volume 6 to 8 L/min. For registration of the breathing mechanics, breath flow is determined by means of a pressurizing pipe (flesh no. 1), installed directly before the orotracheal tube, of a differential pressure recorder and amplifier DCB-4C. A catheter is placed in the trachea and a second (balloon) catheter is placed in the lung section of the esophagus. Both are connected with a differential pressure recorder and amplifier for determination of the transpulmonary pressure. A breath mechanics computer (IFD-Mühlheim) determines the pulmonary resistance (R) from the registered pressure values. From this, a computer program VAS-1 LA (IFD-Mühlheim) calculates: [formula] […]

[3] = 3 μg inhalative, 1 min after application, individual dog
[4] = 3 μg inhalative, 5 min after application, individual dog
[5] = 3 μg inhalative, 5 min after application, mean value, n = 6
[6] = 3 μg inhalative, 10 min after application, individual dog
[7] = 3 μg inhalative, 20 min after application, individual dog
[8] = 3 μg inhalative, 30 min after application, individual dog
[9] = 3 μg inhalative, 60 min after application, individual dog
[10] = 3 μg inhalative, 120 min after application, individual dog
[11] = 3 μg inhalative, 180 min after application, individual dog
[12] = 3 μg inhalative, 180 min after application, mean value, n = 6
[13] = 10 μg inhalative, 1 min after application, individual dog
[14] = 10 μg inhalative, 5 min after application, individual dog
[15] = 10 μg inhalative, 5 min after application, mean value, n = 6
[16] = 10 μg inhalative, 10 min after application, individual dog
[17] = 10 μg inhalative, 10 min after application, mean value, n = 6
[18] = 10 μg inhalative, 20 min after application, individual dog
[19] = 10 μg inhalative, 20 min after application, mean value, n = 6
[20] = 10 μg inhalative, 30 min after application, individual dog
[21] = 10 μg inhalative, 30 min after application, mean value, n = 6
[22] = 10 μg inhalative, 60 min after application, individual dog
[23] = 10 μg inhalative, 60 min after application, mean value, n = 6
[24] = 10 μg inhalative, 120 min after application, individual dog
[25] = 10 μg inhalative, 180 min after application, individual dog
[26] = 10 μg inhalative, 180 min after application, mean value, n = 6

SMILES: COc1ccc(CC(C)NCC(O)c2ccc(O)c(NC=O)c2)cc1 (centres unmarked) [formoterol fumarate, formoterol]
- Heart frequency (beats/min.) [1, 3]: 67.00 beats/min. and 91.00 beats/min. and 102.00 beats/min.
- Heart frequency, % alteration [1, 3]: 7.94% and −7.52% and 11.67% and 13.04% and 21.13% and 15.68%
- Heart frequency (beats/min.) ([1]; 3 μg inhalative, 1 min after application, mean value, n = 6): 103.17 beats/min.
- Heart frequency (beats/min.) [1, 4]: 140.00 beats/min. and 64.00 beats/min. and 95.00 beats/min.
- Heart frequency, % alteration [1, 4]: 11.11% and 5.26% and 6.67% and 18.01% and 28.64% and 25.41%
- Heart frequency (beats/min.) [1, 5]: 109.50 beats/min.
- Heart frequency, % alteration [1, 5]: 15.85%
- Heart frequency (beats/min.) [1, 6]: 100.00 beats/min. and 110.00 beats/min.
- Heart frequency, % alteration [1, 6]: 36.51% and 21.80% and 66.67% and 36.65% and 29.58%
- Heart frequency, % alteration ([1]; 3 μg inhalative, 10 min after application, mean value, n = 6): 37.72%
- Heart frequency (beats/min.) [1, 7]: 165.00 beats/min. and 95.00 beats/min. and 100.00 beats/min. and 141.00 beats/min.
- Heart frequency, % alteration [1, 7]: 41.80% and 24.06% and 54.33% and 24.44% and 32.39% and 36.22%
- Heart frequency, % alteration ([1]; 3 μg inhalative, 20 min after application, mean value, n = 6): 36.17%
- Heart frequency (beats/min.) [1, 8]: 159.00 beats/min. and 89.00 beats/min. and 95.00 beats/min.
- Heart frequency, % alteration [1, 8]: 46.03% and 48.33% and 18.01% and 38.38%
- Heart frequency, % alteration ([1]; 3 μg inhalative, 30 min after application, mean value, n = 6): 34.41%
- Heart frequency (beats/min.) [1, 9]: 86.00 beats/min. and 94.00 beats/min. and 140.00 beats/min.
- Heart frequency, % alteration [1, 9]: 41.80% and 15.04% and 43.33% and 31.46% and 38.38%
- Heart frequency, % alteration ([1]; 3 μg inhalative, 60 min after application, mean value, n = 6): 31.13%
- Heart frequency (beats/min.) [1, 10]: 88.00 beats/min. and 94.00 beats/min. and 130.00 beats/min. and 120.00 beats/min.
- Heart frequency, % alteration [1, 10]: 21.69% and 46.67% and 29.73%
- Heart frequency (beats/min.) [1, 11]: 140.00 beats/min. and 86.00 beats/min. and 96.00 beats/min. and 130.00 beats/min. and 120.00 beats/min.
- Heart frequency, % alteration [1, 11]: 14.29% and 5.26% and 43.33% and 19.25% and 29.73%
- Heart frequency (beats/min.) [1, 12]: 113.33 beats/min.
- Heart frequency, % alteration [1, 12]: 22.32%
- Heart frequency (beats/min.) [1, 13]: 96.00 beats/min.
- Heart frequency, % alteration [1, 13]: 22.75% and 9.02% and 81.67% and 19.25% and −1.41% and 31.89%
- Heart frequency, % alteration ([1]; 10 μg inhalative, 1 min after application, mean value, n = 6): 27.20%
- Heart frequency (beats/min.) [1, 14]: 136.00 beats/min. and 120.00 beats/min. (2×)
- Heart frequency, % alteration [1, 14]: 61.90% and 2.26% and 143.33% and 49.07% and 12.68% and 31.89%
- Heart frequency (beats/min.) [1, 15]: 132.83 beats/min.
- Heart frequency, % alteration [1, 15]: 50.19%
- Heart frequency (beats/min.) [1, 16]: 191.00 beats/min. and 152.00 beats/min. and 144.00 beats/min. and 160.00 beats/min. and 130.00 beats/min. and 155.00 beats/min.
- Heart frequency, % alteration [1, 16]: 64.02% and 43.61% and 153.33% and 78.88% and 50.23% and 40.54%
- Heart frequency (beats/min.) [1, 17]: 155.33 beats/min.
- Heart frequency, % alteration [1, 17]: 71.77%
- Heart frequency (beats/min.) [1, 18]: 204.00 beats/min. and 156.00 beats/min. and 135.00 beats/min. and 157.00 beats/min.
- Heart frequency, % alteration [1, 18]: 66.14% and 53.38% and 155.00% and 93.79% and 48.36% and 45.95%
- Heart frequency (beats/min.) [1, 19]: 160.50 beats/min.
- Heart frequency, % alteration [1, 19]: 77.10%
- Heart frequency (beats/min.) [1, 20]: 207.00 beats/min. and 150.00 beats/min. (2×) and 156.00 beats/min. and 140.00 beats/min. and 159.00 beats/min.
- Heart frequency, % alteration [1, 20]: 68.25% and 55.64% and 150.00% and 93.79% and 40.85% and 51.35%
- Heart frequency (beats/min.) [1, 21]: 160.33 beats/min.
- Heart frequency, % alteration [1, 21]: 76.65%
- Heart frequency (beats/min.) [1, 22]: 210.00 beats/min. and 149.00 beats/min. and 140.00 beats/min. (2×) and 150.00 beats/min. and 163.00 beats/min.
- Heart frequency, % alteration [1, 22]: 72.49% and 57.89% and 148.33% and 73.91% and 40.85% and 51.35%
- Heart frequency (beats/min.) [1, 23]: 158.67 beats/min.
- Heart frequency, % alteration [1, 23]: 74.14%
- Heart frequency (beats/min.) [1, 24]: 209.00 beats/min. and 140.00 beats/min. and 135.00 beats/min. and 176.00 beats/min.
- Heart frequency, % alteration [1, 24]: 86.24% and 57.14% and 143.33% and 73.91% and 45.95%
- Heart frequency, % alteration ([1]; 10 μg inhalative, 120 min after application, mean value, n = 6): 73.79%
- Heart frequency (beats/min.) [1, 25]: 205.00 beats/min. and 141.00 beats/min. and 130.00 beats/min. and 135.00 beats/min. and 152.00 beats/min.
- Heart frequency, % alteration [1, 25]: 60.85% and 54.14% and 135.00% and 61.49% and 45.95%
- Heart frequency (beats/min.) [1, 26]: 151.33 beats/min.
- Heart frequency, % alteration [1, 26]: 65.59%
- maximum increase of heart frequency ([1]; high dosage (10 μg)): over 90%
- increase of heart frequency after the end of the test ([1]; high dosage (10 μg), end of test (180 minutes)): over 80%
- onset of maximum bronchospasmolytic effect [2]: rapidly occurs
- effective duration of bronchospasmolytic effect ([2]; test duration 180 minutes): comparatively short
